Results: PubChem BioAssay (NCI)
“And” between values parts separate entries of the source, which are not always exact repeats. Identical values can stand only once.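 Five concentrations, 48 hours, 96-well plates. GI50 marks 50% less growth. TGI denotes the concentration required for complete inhibition of growth.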

Tests used:
Experiment in all cases: NCI anticancer screen, dose series, 48 h
[1] = tested on: DMS 114 small cell lung
[2] = tested on: SR leukemia
[3] = tested on: NCI-H226 lung
[4] = tested on: RPMI-8226 leukemia
[5] = tested on: OVCAR-5 ovarian
[6] = tested on: M14 melanoma
[7] = tested on: KM12 colon
[8] = tested on: KM20L2 colon
[9] = tested on: TK-10 renal
[10] = tested on: CAKI-1 renal

SMILES	TGI [1] [µM]	TGI [2]	TGI [3]	TGI [4]	TGI [5]	TGI [6]	TGI [7]	TGI [8] [µM]	TGI [9]	GI50 [9]	TGI [10]	GI50 [8] [µM]	GI50 [10]	GI50 [2]	GI50 [3]	GI50 [4]	GI50 [5]	GI50 [6]	GI50 [7]
O=c1cc(-c2ccccn2)[nH]c2cccc(F)c12	> 100	> 100 µM	> 100 µM	> 100 µM	> 100 µM	> 100 µM	> 100 µM	> 100	> 100 µM										
COc1cc(CNc2nc3c(N)cc(C(F)(F)F)cc3nc2-c2ccccc2)cc(OC)c1OC	> 100		> 100 µM	> 100 µM	> 100 µM	> 100 µM	> 100 µM	> 100	> 100 µM	> 100 µM									
COc1ccccc1N=Nc1c(-c2ccccc2)nn(C(=O)CC(=O)Nc2cccc(C)c2)c1-c1ccccc1	77.1		> 100 µM		> 100 µM	> 100 µM	> 100 µM	88.1	> 100 µM		> 100 µM								
C=CCn1c(=S)sc2c(C(=O)OCC)c3c(C)cc(C)cn3c2c1=O		> 100 µM	> 100 µM	> 100 µM	> 100 µM	> 100 µM		> 100	> 100 µM		> 100 µM								
N#C/C(=C1\SCC(=O)N1c1ccccc1)c1nc2ccccc2[nH]1	> 100		> 100 µM		> 100 µM	> 100 µM		> 100	> 100 µM		> 100 µM								
COC(=O)CCC(NC(=S)N/N=C(\C)c1ccc[nH]1)C(=O)OC (configuration not stated)	> 100		> 100 µM		> 100 µM	> 100 µM	> 100 µM	> 100	> 100 µM										
O=c1cccccc1[O-].O=c1cccccc1[O-].O=c1cccccc1[O-].[Eu+3]			> 100 µM	> 100 µM	> 100 µM	> 100 µM	> 100 µM	> 100	> 100 µM		> 100 µM	27.2							
[N-]=[N+]=NC(c1cn(C2CC(O)C(CO)O2)c(=O)[nH]c1=O)C(Cl)Br (configuration not stated)	> 100	> 100 µM	> 100 µM	> 100 µM			> 100 µM	> 100	> 100 µM		> 100 µM								
Cc1c(C(=O)C/C(=N/NC(=O)c2ccccc2)C(=O)Nc2ccc(Cl)cc2)[n+](=O)c2ccccc2n1[O-]	> 100	> 100 µM	> 100 µM	> 100 µM	> 100 µM	> 100 µM	> 100 µM		> 100 µM		> 100 µM								
COc1cc2c(cc1OC)C(C(=O)O)C(c1ccccc1)N(C)C2=O (configuration not stated)	> 100			> 100 µM	> 100 µM	> 100 µM	> 100 µM	> 100	> 100 µM		> 100 µM								
C=CC(=O)N1CCC(c2ccc(C(N)=O)c(-c3ccc(Oc4ccccc4)cc3)n2)CC1		> 100 µM	79.2 µM	73.7 µM	> 100 µM	> 100 µM	> 100 µM		99.4 µM	19.2 µM	> 100 µM		15.8 µM	28 µM	20.3 µM	20.4 µM	> 100 µM	34.3 µM	39.6 µM
O=C(CCN1CCCC1)Nc1ccc2c(NCc3ccccc3)c3ccccc3nc2c1		1.58 µM	2.91 µM		2.06 µM	2.03 µM	1.85 µM		3.5 µM	0.802 µM	6.18 µM		1.53 µM	0.261 µM	0.551 µM	0.411 µM	0.424 µM	0.657 µM	0.439 µM
COc1ccc([C@H](CC(=O)O)N2CCN(CCCc3ccc4c(n3)NCCC4)C2=O)cn1		> 100 µM		> 100 µM	> 100 µM	> 100 µM	> 100 µM		0.0795 µM	0.0167 µM	> 100 µM		2.71 µM	> 100 µM	0.417 µM	> 100 µM	0.403 µM	> 100 µM	> 100 µM
CC(C)/C=C1\CCC(CN2CCOCC2)C1=O (configuration not stated)		13.1 µM	94.8 µM	4.47 µM	39.4 µM	26.1 µM	23.6 µM	38.2	29.7 µM		8.93 µM								
COC(=O)c1cc(-c2ccccc2)[nH]c1N/N=C/c1c(Cl)cccc1Cl		> 100 µM		0.753 µM	16.7 µM	1.37 µM	1.57 µM		2.4 µM	0.392 µM	4.39 µM		0.354 µM	0.429 µM	0.369 µM	0.243 µM	0.732 µM	0.24 µM	0.274 µM
COc1ccc(/C=C(/c2ccccc2)[N+](=O)[O-])c(OC)c1		16.2 µM	4.49 µM	1.64 µM	3.74 µM	3.51 µM	3.31 µM		4.18 µM	2.24 µM	2.64 µM		1.23 µM	0.641 µM	1.95 µM	0.372 µM	1.92 µM	1.48 µM	1.72 µM
O=C(O)C(Cc1cnc[nH]1)N1C(=O)c2ccccc2C1=O (configuration not stated)		> 100 µM	> 100 µM	> 100 µM	> 100 µM	> 100 µM	> 100 µM		> 100 µM		> 100 µM								
O=C1C2C(C(=O)N1c1ccccc1)C1c3ccccc3C2C2C(=O)N(c3ccccc3)C(=O)C21 (configuration not stated)	27		> 100 µM	> 100 µM	99.5 µM	> 100 µM	> 100 µM	42.8	> 100 µM		> 100 µM								
Cc1cc(N(CCC#N)S(=O)(=O)c2ccccc2)ccc1/C=C1\N=C(c2ccc(Cl)cc2)OC1=O	> 100		> 100 µM	> 100 µM	> 100 µM	> 100 µM	> 100 µM	> 100			> 100 µM								
CCCn1c(SCCSc2c3ccccc3c(-c3nc(F)nc(F)n3)n2CCC)c2ccccc2c1-c1nc(F)nc(F)n1		60.4 µM		79.7 µM	> 100 µM	> 100 µM	> 100 µM	> 100	> 100 µM		> 100 µM								
O=C1NC(N/N=C\C(O)C(O)C(O)C(O)CO)=N/C1=C/c1ccccc1 (configuration not stated)		> 100 µM and 51.2 µM	> 100 µM and 40.8 µM	> 100 µM and 45.2 µM	> 100 µM and 44.9 µM	> 100 µM and 31.6 µM	> 100 µM and 36.7 µM		> 100 µM and 48.3 µM	> 100 µM and 19 µM	> 100 µM and 38.1 µM		> 100 µM and 19.4 µM	51 µM and 16.3 µM and 99.4 µM	> 100 µM and 19.5 µM	58.8 µM and 19.6 µM and > 100 µM	> 100 µM and 24.4 µM	52.6 µM and 15.4 µM and > 100 µM	41.6 µM and 16.2 µM and > 100 µM
